Source: US8552208B2, “Analogs of tetramic acid” (University of Tennesseee Research Foundation, priority 2007, dated 2013)
Values after ≈ are worked out from the molar mass of the structure shown. Where two headings read alike, the source gives them in different places.

Legend:
[1] = system: Mycobacterium tuberculosis H37 Rv; assay: Antibacterial activity assay (MIC, broth dilution); assay type: cell-based; conditions: H37RV, 168 h; Mycobacterium tuberculosis H37 Rv; […]; read-out: MIC, TB
[2] = system: Methicillin Resistant Staphylococcus aureus ATCC 33591; assay: Antibacterial activity assay (MIC, broth dilution); assay type: cell-based; conditions: ATCC 33591 / MRSA, read-out: MIC, MRSA
[3] = system: Streptococcus pyogenes ATCC 700294; assay: Antibacterial activity assay (MIC, broth dilution); assay type: cell-based; conditions: ATCC700294; Streptococcus pyogenes ATCC 700294; read-out: MIC, SP
Staphylococcus aureus = assay: Selection of single-step resistant mutants; assay type: cell-based; conditions: from a population of 10^10 cells
[4] = system: Streptococcus pneumoniae DAW30EC; assay: Antibacterial activity assay (MIC, broth dilution); assay type: cell-based; conditions: Streptococcus pneumoniae DAW30EC; read-out: MIC, SPn
[5] = system: clinical isolates of MRSA (methicillin resistant S. aureus); assay type: cell-based
[6] = system: Enterococcus faecalis ATCC 33186; assay: Antibacterial activity assay (MIC, broth dilution); assay type: cell-based; conditions: ATCC33186; Enterococcus faecalis ATCC 33186; read-out: MIC, EF
[7] = system: Propionibacterium acnes ATCC 6919; assay: Antibacterial activity assay (MIC, broth dilution); assay type: cell-based; conditions: Cutibacterium acnes, ATCC6919; Propionibacterium acnes ATCC 6919; read-out: MIC, PA
[8] = system: Bacillus anthracis Sterne 34F2; assay: microbe, parasite or virus in culture; assay type: cell-based; conditions: STERNE34F2, read-out: MIC, BA
[9] = system: MRSA (ATCC 35391) biofilm; assay: Calgary Biofilm Device anti-biofilm activity; assay type: cell-based, Staphylococcus aureus; conditions: Staphylococcus aureus, triplicate runs listed singly
[10] = system: Vero monkey kidney cell line (ATCC, CCL-81); assay: Cytotoxicity assay (MTT); assay type: cell-based; conditions: IC50 divided by MIC against S. aureus 8325
In short: (§1)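 Vero cells seeded ~10^6 cells/mL and pre-incubated 18 h, then exposed to compounds at 400-0.024 μg/mL for 72 h at 37 °C, 5% CO2; 0.1% Triton X-100 as full-kill control. MTT added 3 h, formazan read at 570 nm after lysis; IC50 from percent activity vs log10 concentration curves.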

Cytotoxicity assay (MTT) = assay type: cell-based, monkey; conditions: monkey, Vero monkey kidney cells (ATCC CCL-81); Vero cells, 72 hours, MTT; read-out: IC50 (Cytotoxicity): Concentration which reduces viability of Vero kidney cells by 50%
In short: as §1

[11] = system: clinical isolates of MSSA (methicillin sensitive S. aureus); assay type: cell-based
[12] = system: methicillin-sensitive S. aureus ATCC 29213; assay: Superficial skin infection model in mice; assay type: in vivo, Balb/c mice; conditions: topical, twice daily for three days, bacteria in lesions on day 5, placebo 8.15 +/− 0.37
Method: Compounds of the invention were tested for the ability to treat skin infections utilizing an established animal model of skin infection. The superficial skin infection model used in this study was previously developed by Kugelberg et al, “Establishment of a Superficial Skin Infection Model in Mice using Staphylococcus aureus and Streptococcus pyogenes”, Antimicrob. Agents Chemother., 49(8):3435-3441 (2005).
Superficial infections in Balb/c mice (male) were caused by first removing hair from the backs of mice with an electric shaver, followed by dry shaving with a razor and tape stripping with Tensoplast® (BSN Medical Inc., Charlotte, N.C.) adhesive bandage to remove the epidermis, followed by infection with a 5 μl bacterial suspension containing about 10^7 bacterial cells of methicillin-sensitive S. aureus ATCC 29213, a strain from a previous isolate from a human wound infection and used in other murine infection studies. After 4 hours of infection, treatment was started by administering 45-50 mg of ointment containing (i) vehicle hydrophilic petrolatum (placebo) (ii) 2% w/w mupirocin ointment (Bactroban®, GlaxoSmithKline plc., United Kingdom) in vehicle or (iii) 2% tetramic acid analogue of the invention (13b) in vehicle, (iv) 10% tetramic acid analogue of the invention (13b) in vehicle, (v) 2% tetramic acid analogue of the invention (13l) in vehicle, or (vi) 10% tetramic acid analogue of the invention (13l) in vehicle. Treatment was continued for three days with drug application twice daily at 8 hour intervals. On day 5, mice were sacrificed and the numbers of bacteria in lesions were enumerated.
This conclusion stems from statistical analysis of the resulting means by one way ANOVA followed by Tukey's test at P<0.01 with Placebo as the control group. Therefore, the tetramic acid analogues of the invention have the potential to be used clinically for the treatment of skin infections, such as those caused by Staphylococcus aureus.

[13] = system: MSSA (ATCC 25293) biofilm; assay: Calgary Biofilm Device anti-biofilm activity; assay type: cell-based; conditions: Staphylococcus aureus, MSSA biofilm, triplicate runs listed singly
[14] = system: Bacillus subtilis ATCC 23857; assay: Antibacterial activity assay (MIC, broth dilution); assay type: cell-based; conditions: ATCC23857; Bacillus subtilis ATCC 23857; read-out: MIC, BS
[15] = system: Methicillin sensitive Staphylococcus aureus 8325 ATCC 35556; assay: Antibacterial activity assay (MIC, broth dilution); assay type: cell-based; conditions: ATCC 35556 / MSSA; Methicillin sensitive Staphylococcus aureus 8325 ATCC 35556; read-out: MIC, MSSA
[16] = system: S. epidermidis (RP62A) biofilm; assay: Calgary Biofilm Device anti-biofilm activity; assay type: cell-based; conditions: Staphylococcus epidermidis, S. epidermidis biofilm, triplicate runs listed singly
[17] = read-out: MBEC = Minimum Biofilm Eradication Concentration
[18] = read-out: MBIC = Minimum Biofilm Inhibitory Concentration

With `CCCCCCCCCCN1C(=O)/C(=C(/C)O)C(=O)[C@@H]1CC(C)C` [Compound 13b, (S,Z)-1-decyl-3-(1-hydroxyethylidene)-5-isobutylpyrrolidine-2,4-dione] the MIC [1] was 12.5 µg/mL (≈ 37 µM), the MIC [2] was 0.8 µg/mL (≈ 2.37 µM) and the MIC [3] was 50 µg/mL (≈ 148 µM). For the same compound, the “single-step mutants resistant to the compound” value (Staphylococcus aureus) was “could not be obtained”, the MIC [4] was 6.25 µg/mL (≈ 18.5 µM) and the “Antibiotic MIC” value ([5]; isolate MRSA-1) was 0.8 µg/mL. The “Antibiotic MIC” value ([5]; isolate MRSA-2) was 0.8 µg/mL, the “Antibiotic MIC” value ([5]; isolate MRSA-3) was 0.8 µg/mL and the “Antibiotic MIC” value ([5]; isolate MRSA-4) was 0.8 µg/mL. For the same compound, the “Antibiotic MIC” value ([5]; isolate MRSA-5) was 0.8 µg/mL, the “Antibiotic MIC” value ([5]; isolate MRSA-6) was 1.6 µg/mL and the “Antibiotic MIC” value ([5]; isolate MRSA-7) was 0.8 µg/mL. The “Antibiotic MIC” value ([5]; isolate MRSA-8) was 0.4 µg/mL, the “Antibiotic MIC” value ([5]; isolate MRSA-9) was 0.8 µg/mL and the “Antibiotic MIC” value ([5]; isolate MRSA-10) was 0.8 µg/mL. For the same compound, the MIC [6] was 1.6 µg/mL (≈ 4.74 µM), the MIC [7] was 0.8 µg/mL (≈ 2.37 µM) and the MIC [8] was 0.8 µg/mL (≈ 2.37 µM). For the same compound, the MIC ([9]; MRSA biofilm, read-out: MBIC = Minimum Biofilm Inhibitory Concentration) was 0.8 µg/mL (≈ 2.37 µM), the MBC ([9]; read-out: MBEC = Minimum Biofilm Eradication Concentration, MRSA biofilm) was 6.25 µg/mL (≈ 18.5 µM) and the “IC50/MIC = Selectivity (therapeutic) index” value [10] was 36.8. For the same compound, the IC50 at 72 h (Cytotoxicity assay (MTT)) was 14.7 µg/mL, the “Antibiotic MIC” value ([11]; isolate MSSA-11) was 0.8 µg/mL and the “Antibiotic MIC” value ([11]; isolate MSSA-12) was 0.4 µg/mL. The “Antibiotic MIC” value ([11]; isolate MSSA-13) was 0.4 µg/mL, the “Antibiotic MIC” value ([11]; isolate MSSA-14) was 0.4 µg/mL and the “Antibiotic MIC” value ([11]; isolate MSSA-15) was 0.4 µg/mL. For the same compound, the “Antibiotic MIC” value ([11]; isolate MSSA-16) was 0.4 µg/mL, the “Antibiotic MIC” value ([11]; isolate MSSA-17) was 0.4 µg/mL and the “Antibiotic MIC” value ([11]; isolate MSSA-18) was 0.4 µg/mL. The “Antibiotic MIC” value ([11]; isolate MSSA-19) was 0.4 µg/mL, the “Antibiotic MIC” value ([11]; isolate MSSA-20) was 0.8 µg/mL and the “Mean Bacterial Count (log10) +/− SD” value ([12]; 2% ointment) was 8.08 +/− 0.28 log10. For the same compound, the “Mean Bacterial Count (log10) +/− SD” value ([12]; 10% ointment) was 6.47 +/− 0.58 log10, the MBC [13, 17] was 100 µg/mL (≈ 296 µM) and the MIC [13, 18] was 0.8 µg/mL (≈ 2.37 µM). For the same compound, the MIC [14] was 0.8 µg/mL (≈ 2.37 µM), the MIC [15] was 0.4 µg/mL (≈ 1.19 µM) and the MBC [16, 17] was 50 µg/mL (≈ 148 µM). The MIC [16, 18] was 0.4 µg/mL (≈ 1.19 µM).
